Assays:
Test in all cases: normalised response (% of control), CellTiter-Glo; higher = more viable cells (100 = DMSO, 0 = benzethonium chloride kill control)
Conditions in all cases: incubation time: 72 h
MCF-10A = test system: MCF-10A
How it was run: (§1)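 Each value is the plate-normalised signal at one concentration of the series. Breast cancer cell lines (20 µl suspension) were incubated 72 h in 384-well plates with compound at 5 concentrations in 10-fold steps over a compound-specific 10,000-fold range. CellTox Green and then CellTiter-Glo were read, and each plate was scaled to 0.1 % DMSO (100) and a positive kill control (0).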

CAL-85-1 = test system: CAL-85-1
How it was run: as §1

DU-4475 = test system: DU-4475
How it was run: as §1

Hs578T = test system: Hs578T
How it was run: as §1

MDA-MB-231 = test system: MDA-MB-231
How it was run: as §1

BT-549 = test system: BT-549
How it was run: as §1

HCC1143 = test system: HCC1143
How it was run: as §1

MDA-MB-453 = test system: MDA-MB-453
How it was run: as §1

HDQ-P1 = test system: HDQ-P1
How it was run: as §1

HCC1937 = test system: HCC1937
How it was run: as §1

SK-BR-3 = test system: SK-BR-3
How it was run: as §1

MDA-MB-436 = test system: MDA-MB-436
How it was run: as §1

HCC1599 = test system: HCC1599
How it was run: as §1

MDA-MB-468 = test system: MDA-MB-468
How it was run: as §1

MFM-223 = test system: MFM-223
How it was run: as §1

CAL-148 = test system: CAL-148
How it was run: as §1

BT-474 = test system: BT-474
How it was run: as §1

CAL-51 = test system: CAL-51
How it was run: as §1

CAL-120 = test system: CAL-120
How it was run: as §1

SMILES | normalised response (MCF-10A) [%] | normalised response (CAL-85-1) [%] | normalised response (DU-4475) [%] | normalised response (Hs578T) [%] | normalised response (MDA-MB-231) [%] | normalised response (BT-549) [%] | normalised response (HCC1143) [%] | normalised response (MDA-MB-453) [%] | normalised response (HDQ-P1) [%] | normalised response (HCC1937) [%] | normalised response (SK-BR-3) [%] | normalised response (MDA-MB-436) [%] | normalised response (HCC1599) [%] | normalised response (MDA-MB-468) [%] | normalised response (MFM-223) [%] | normalised response (CAL-148) [%] | normalised response (BT-474) [%] | normalised response (CAL-51) [%] | normalised response (CAL-120) [%]
Cc1c(CN2CCN(C(=O)[C@H](C)O)CC2)sc2c(N3CCOCC3)nc(-c3cnc(N)nc3)nc12 [GDC-0980] (1 nM) | 108 | 105 | 104 | 103 | 109 | 105 | 96.7 | 94.9 | 103 | 98.9 | 105 | 101 | 110 | 108 | 98.8 | 112 | 111 | 115 | 104
Cc1c(CN2CCN(C(=O)[C@H](C)O)CC2)sc2c(N3CCOCC3)nc(-c3cnc(N)nc3)nc12 [GDC-0980] (10 nM) | 109 | 96.9 | 101 | 98.3 | 107 | 101 | 106 | 97.5 | 94.4 | 107 | 108 | 104 | 105 | 113 | 106 | 117 | 106 | 90.2 | 97.4
Cc1cccc(-c2nn3c(c2-c2ccnc4ccc(C(N)=O)cc24)CCC3)n1 [Galunisertib] (0.1 nM) | 109 | 98.1 | 105 | 110 | 100 | 95.7 | 110 | 107 | 104 | 104 | 109 | 104 | 107 | 116 | 108 | 112 | 108 | 76.9 | 104
Nc1cccc2c1CN(C1CCC(=O)NC1=O)C2=O (stereo not given) [Lenalidomide] (1 nM) | 96.1 | 108 | 106 | 97.1 | 98.4 | 101 | 93.1 | 112 | 97.9 | 94 | 107 | 94 | 106 | 110 | 97.3 | 97.8 | 97 | 113 | 94.9
Nc1cccc2c1CN(C1CCC(=O)NC1=O)C2=O (stereo not given) [Lenalidomide] (10 nM) | 104 | 106 | 102 | 97.1 | 97.8 | 101 | 105 | 104 | 99.9 | 91.2 | 107 | 91.9 | 111 | 105 | 95.8 | 99.7 | 97.8 | 73.6 | 92.6
C[C@]12O[C@H](C[C@]1(O)CO)n1c3ccccc3c3c4c(c5c6ccccc6n2c5c31)CNC4=O [Lestaurtinib] (0.1 nM) | 92.9 | 103 | 94.8 | 97.8 | 102 | 98.4 | 99.6 | 100 | 100 | 95 | 89.2 | 94 | 92.7 | 95.8 | 96.7 | 90.7 | 96.7 | 91.1 | 103
O=C1c2c(O)ccc(O)c2C(=O)c2c(NCCNCCO)ccc(NCCNCCO)c21 [Mitoxantrone] (0.1 nM) | 103 | 101 | 94.2 | 96.9 | 98.9 | 99.3 | 104 | 99.3 | 102 | 98.1 | 98 | 84.4 | 95.3 | 97.8 | 97.3 | 94.2 | 91.8 | 101 | 103
O=C1c2c(O)ccc(O)c2C(=O)c2c(NCCNCCO)ccc(NCCNCCO)c21 [Mitoxantrone] (1 nM) | 97.8 | 100 | 99.1 | 102 | 100 | 91.3 | 98.3 | 103 | 96.2 | 98.7 | 100 | 98.8 | 96.7 | 100 | 106 | 101 | 94.5 | 73.6 | 96.9
Nc1ccccc1NC(=O)c1ccc(CNc2nccc(-c3cccnc3)n2)cc1 [Mocetinostat] (1 nM) | 91.6 | 101 | 105 | 99.3 | 103 | 98.5 | 96.7 | 114 | 101 | 102 | 103 | 111 | 91.5 | 101 | 98.1 | 109 | 100 | 85.2 | 102
COc1nc(N)nc2c1ncn2[C@@H]1O[C@H](CO)[C@@H](O)[C@@H]1O [Nelarabine] (1 nM) | 79.1 | 94.9 | 89.5 | 94.8 | 98.1 | 102 | 92.3 | 90.4 | 90.5 | 88.8 | 86.1 | 86 | 105 | 84 | 88.2 | 84.1 | 87.9 | 117 | 94.5

Source: the supplement of paper PMC4862054
